Source: US11433055B2, “Chromane monobactam compounds for the treatment of bacterial infections” (priority 2017, dated 2022)
Structures can show the parent of a compound that is named as a salt. Where two headings read alike, the source gives them in different places.

Legend:
Assay type in all cases: cell-based
Details in all cases: lowest concentration inhibiting 95% of bacterial growth, in the presence of β lactamase inhibitor (BLi, Relebactam), 22 hours, 35±2° C., OD600
[1] = tested on: Acinetobacter baumannii expressing TEM-1, AmpC, and Oxa-24/40 (CL6188)
Description: (§1) Antibiotic Activity: Determination of Growth Inhibitory Concentration
(§2) The concentrations of compounds required to inhibit the growth of various strains of bacteria were determined in an assay that assessed bacterial growth by measuring optical density at 600 nm (OD600). The bacterial strains tested included the clinical strains Escherichia coli expressing NDM-1 (CLB30016), Klebsiella pneumoniae expressing KPC-1 (CL6569), Acinetobacter baumannii expressing TEM-1, AmpC, and Oxa-24/40 (CL6188) and Pseudomonas aeruginosa expressing AmpC (CL5701). All compounds were tested in the presence of a β lactamase inhibitor (BLi, Relebactam) in 384-well microplates. The clinical strains were stored as frozen single use stocks, thawed and diluted into 1.1× cation-adjusted Mueller-Hinton II broth to achieve approximately 2×10^5 CFU/mL. Test compounds were dissolved in DMSO and diluted 1:50 in the assay, resulting in a final concentration range of 100 μM to 0.098 μM. On the day of the assay, 1 μL of test compound was added to the plate followed by 4 μL of 50 μg/mL BLi in MOPS buffer and 45 μL of diluted bacteria. Plates were centrifuged at 1000 rpm for 30 seconds, shaken at approximately 800 rpm for 1 minute, and incubated at 35±2° C. for 22 hours. The concentration of BLi used in the assay was […]. At the end of the incubation, absorbance at 600 nm was determined using a spectrophotometer. Inhibition was quantitated by identifying the lowest concentration of test compound that was required to inhibit 95% of the growth of the bacteria. The results for Examples 1-39 are reported in Table I, expressed as the concentration of compound that inhibited 95% of bacterial growth (Minimum Inhibitory Threshold Concentration; MITC95).

[2] = tested on: Klebsiella pneumoniae expressing KPC-1 (CL6569)
Description: as §1, §2

[3] = tested on: Pseudomonas aeruginosa expressing AmpC (CL5701)
Description: as §1, §2

[4] = tested on: Escherichia coli expressing NDM-1 (CLB30016)
Description: as §1, §2

## CC1(C)[C@H](NC(=O)/C(=N\O[C@](C)(C(=O)O)[C@H]2CCc3cc(-c4ccc5[n+](c4)CC(CN)CN5CCN)ccc3O2)c2csc(N)n2)C(=O)N1OS(=O)(=O)[O-].O=CO (stereo partly drawn) [Example 39]
[1]
  AB_CL6188 MITC95: 7.292 µM
[2]
  KP_CL6569 MITC95: 0.3255 µM
[3]
  PA_CL5701 MITC95: 3.125 µM
[4]
  EC_CLB30016 MITC95: 12.5 µM

## CC1(C)[C@H](NC(=O)/C(=N\O[C@](C)(C(=O)O)[C@H]2CCc3cc(-c4cn(C[C@@H](O)CN)[n+](CC5CNC5)c4)ccc3O2)c2csc(N)n2)C(=O)N1OS(=O)(=O)[O-] [Example 4, (S)-3-((Z)-2-(((S)-1-((R)-6-(1-((S)-3-Amino-2-hydroxypropyl)-2-(azetidin-3-ylmethyl)-1H-pyrazol-2-ium-4-yl)chroman-2-yl)-1-carboxyethoxy)imino)-2-(2-aminothiazol-4-yl)acetamido)-2,2-dimethyl-4-oxoazetidin-1-yl Sulfate]
[1]
  AB_CL6188 MITC95: 6.25 µM
[2]
  KP_CL6569 MITC95: 1.281 µM
[3]
  PA_CL5701 MITC95: 25 µM
[4]
  EC_CLB30016 MITC95: 12.5 µM

## CC1(C)[C@H](NC(=O)/C(=N/O[C@](C)(C(=O)O)[C@H]2CCc3cc(C4CN=C(NC[C@H](O)CN)NC4)ccc3O2)c2csc(N)n2)C(=O)N1OS(=O)(=O)O.O=CO (stereo partly drawn) [Example 28, 2-(((R)-3-amino-2-hydroxypropyl)amino)-5-((R)-2-((S)-1-((((E)-1-(2-aminothiazol-4-yl)-2-(((S)-2,2-dimethyl-4-oxo-1-(sulfooxy)azetidin-3-yl)amino)-2-oxoethylidene)amino)oxy)-1-carboxyethyl)chroman-6-yl)-3,4,5,6-tetrahydropyrimidin-1-ium formate]
[1]
  AB_CL6188 MITC95: 3.13 µM
[2]
  KP_CL6569 MITC95: 0.2 µM
[3]
  PA_CL5701 MITC95: 3.13 µM
[4]
  EC_CLB30016 MITC95: 6.25 µM

## CC1(C)[C@H](NC(=O)/C(=N\O[C@](C)(C(=O)O)[C@H]2CCc3cc(-c4ccc(NCCCN)[n+](CCCN)c4)ccc3O2)c2csc(N)n2)C(=O)N1OS(=O)(=O)[O-].O=CO [Example 21, (S)-3-((Z)-2-(((S)-1-((R)-6-(1-(3-aminopropyl)-6-((3-ammoniopropyl)amino)pyridin-1-ium-3-yl)chroman-2-yl)-1-carboxyethoxy)imino)-2-(2-aminothiazol-4-yl)acetamido)-2,2-dimethyl-4-oxoazetidin-1-yl sulfate formate]
[1]
  AB_CL6188 MITC95: 3.125 µM
[2]
  KP_CL6569 MITC95: 0.3906 µM
[3]
  PA_CL5701 MITC95: 12.5 µM
[4]
  EC_CLB30016 MITC95: 6.25 µM

## C[n+]1cc(-c2ccc3c(c2)CC[C@H]([C@](C)(O/N=C(\C(=O)N[C@@H]2C(=O)N(OS(=O)(=O)[O-])C2(C)C)c2csc(N)n2)C(=O)O)O3)ccc1NC(CN)CN.O=CO [Example 23B, (3S)-3-((Z)-2-(((1S)-1-((2R)-6-(6-((1-amino-3-ammoniopropan-2-yl)amino)-1-methylpyridin-1-ium-3-yl)chroman-2-yl)-1-carboxyethoxy)imino)-2-(2-aminothiazol-4-yl)acetamido)-2,2-dimethyl-4-oxoazetidin-1-yl sulfate formate]
[1]; sulfate formate
  AB_CL6188 MITC95: 12.5 µM
[2]; sulfate formate
  KP_CL6569 MITC95: 3.125 µM
[3]; sulfate formate
  PA_CL5701 MITC95: 25 µM
[4]; sulfate formate
  EC_CLB30016 MITC95: 100 µM

## C[n+]1cc(-c2ccc3c(c2)CC[C@H]([C@](C)(O/N=C(\C(=O)N[C@@H]2C(=O)N(OS(=O)(=O)[O-])C2(C)C)c2csc(N)n2)C(=O)O)O3)cn1C[C@@H](O)CN [Example 8, (S)-3-((Z)-2-(((S)-1-((R)-6-(1-((S)-3-amino-2-hydroxypropyl)-2-methyl-1H-pyrazol-2-ium-4-yl)chroman-2-yl)-1-carboxyethoxy)imino)-2-(2-aminothiazol-4-yl)acetamido)-2,2-dimethyl-4-oxoazetidin-1-yl sulfate]
[1]
  AB_CL6188 MITC95: 100 µM
[2]
  KP_CL6569 MITC95: 3.125 µM
[3]
  PA_CL5701 MITC95: 25 µM
[4]
  EC_CLB30016 MITC95: 100 µM
